According to patent US20110201648A1, “POLY-HETEROARYL DERIVATIVES FOR THE TREATMENT OF CANCER” (INSTITUT CURIE, priority 2008, published 2011):

Assays:
[1] = test system: F21T (human telomeric quadruplex-DNA); experiment: FRET-melting assay with F21T; assay type: binding; conditions: for ΔT1/2 F21T: 0.2 μM F21T, 1 μM compound; for F21T stabilization maintained: sodium buffer
Method: Stabilization, and so interaction, of compounds with quadruplex-structure is monitored via FRET-melting assay, in a version that also enables the determination of the quadruplex-over duplex-DNA selectivity as well as the intra-quadruplex selectivity (17).
FRET assay is performed with oligonucleotides that mimic the human or plasmodium telomeric sequences, and equipped with FRET partners at each extremities: F21T (FAM-G3[T2AG3]3-Tamra,) FPf1T (FAM-G3[T3AG3]3-Tamra) and FPf8T (FAM-G3[T2CAG3]3-Tamra) with FAM: 6-carboxyfluorescein and Tamra: 6-carboxy-tetramethylrhodamine). Measurements were made with excitation at 492 nm and detection at 516 nm.
Fluorescence melting were carried out. The results are given on FIG. 3A-FIG. 3C. The experiments were carried out with 0.2 μM of F21T, FPf1T or FPf8T in a buffer containing 10 mM lithium cacodylate pH 7.2 and 100 mM NaCl or KCl (see example of F21T below, NaCl (left) and KCl (right)); the melting of the quadruplex-DNA was monitored alone and in the presence of 1 μM (5 equiv.) of compound 3.
Fluorescence melting are carried out with 0.2 μM of F21T in a buffer containing 10 mM lithium cacodylate pH 7.2 and 100 mM NaCl; the melting of the G-quadruplex was monitored alone and in the presence of 1 μM of compound 3 without or with excess (1, 3 and 10 μM) of duplex-DNA competitor ds26 (a 26 base-pair duplex-DNA comprised of the self complementary sequence [5′-[…]-3′]). The results are given on FIG. 4
Fluorescence melting experiments are carried out with 0.2 μM of F21T in a buffer containing 10 mM lithium cacodylate pH 7.2 and 100 mM NaCl; the melting of the G-quadruplex was monitored alone and in the presence of 1 μM of compound 3 without or with excess (1, 3 and 10 μM) of quadruplex-DNA competitors, both TG5T ([(5′-TG5T-3′)4], a tetramolecular quadruplex-DNA used in previous study (21) or c-myc ([5′-[…]-3′], a sequence present in the promoter region of the oncogene c-myc, highly suspected to fold into an intramolecular quadruplex-structure (22-25). The results are given on FIG. 5A-FIG. 5B.
FIG. 16 gives results obtained in FRET-melting, using the same sodium conditions as above defined in a) and b), with compounds 3 and 4. The melting of the Fluorescently labelled quadruplex F21T was monitored alone and in the presence of 1 μM of compound 3 or compound 4 without or with excess (1.3 and 10 μM) of duplex-DNA competitor ds26 (a 26 base-pair duplex DNA comprised the above mentioned self-complementary sequence [5′-[…]-3′]).

[2] = test system: 22AG quadruplex-DNA (human telomeric sequence); experiment: Fluorescence titration with 22AG; assay type: binding; conditions: 0.25 μM compound, λex=340 nm
Method: The quadruplex-DNA used herein is 22AG: it results from the folding of a 22 nt oligonucleotide that mimics the human telomeric sequence: 22AG is [5′-AG3(T2AG3)3-3′]. Quadruplex-structure from 22AG is prepared by heating the corresponding oligonucleotide at 90° C. for 5 min in a 10 mM sodium cacodylate buffer pH 7.2, 100 mM NaCl (for 22AG Na) or KCl (for 22AG K) and cooling in ice to favor the intramolecular folding by kinetic trapping. Concentrations are determined by UV-Vis measurements (after thermal denaturation, 5 min at 85° C.) at 260 nm before use. (see FIG. 7A and FIG. 7B).

22AG quadruplex-DNA = experiment: Circular dichroism with 22AG; assay type: binding, human
Method: Circular dichroism (CD) enables a deep study of the modification of the DNA structure upon the binding of a ligand; it thus reflects the affinity of the ligand to its target, and can also provide insight into its binding mode (Paramasivan et al, Methods, 2007, 43, 324).
The quadruplex-DNA used herein is 22AG (see above), annealed both in a 10 mM sodium cacodylate buffer pH 7.2, 100 mM NaCl (for 22AG Na) or KCl (for 22AG K). To a 3 μM solution of 22AG in both buffers is added an excess of compound 3 (30 μM, 10 equiv.).
The equilibrium between folded and unfolded forms of 22AG oligonucleotide is highly sensitive to the presence and the nature of the buffer it is used in. In low cationic buffer like 10 mM Tris.HCl, pH 7.2, 22AG is mostly unfolded (random coiled); it is thus possible to influence the folded <-> unfolded equilibrium by adding compound 3. Thus, to a 3 μM solution of random coiled 22AG in Tris.HCl buffer are added increasing amounts of compound 3 (from 0 to 7.5 equiv.); it results in a deep modification of the CD signal of 22AG, with a disappearance of the random coiled-typical 257 nm signal to the benefit of two novel maxima, one positive (near 290 nm) and one negative (near 265 nm), both being typical of the CD signature of ‘anti-parallel’ quadruplex-DNA structure (as 22AG Na, see above).

hPOT1 = experiment: Electrophoretic mobility shift assay, POT1/22AG binding; parameters: species or system human; conditions: 30 nM hPOT1, 20 nM 32P-22AG, 30 min room temperature
Method: An electrophoretic mobility shift assay using hPOT1 was performed on the telomeric 22AG oligonucleotide (see above). 22AG was labeled at the 5′ end with [γ-^32P]-ATP using T4 polynucletide kinase. Purified recombinant hPOT1 was produced in a baculovirus expression system. The POT1/22AG binding assay was performed in a total volume of 10 μl containing 50 mM HEPES, pH 7.9, 100 mM NaCl, 0.1 mM EDTA, 4% w/v sucrose, 2% v/v glycerol, 0.1 mg/ml BSA, 0.02% w/v bromophenol blue, 30 nM hPOT1, 20 nM [[…]-^32P]-22AG. Different concentrations of compound 3 (10, 1, 0.1 and 0.01 μM) were added with hPOT1 to the solution and the mixture was incubated at room temperature for 30 min. Each individual sample was separated by electroporesis on 1% agarose gel in 0.5×Tris-Borate-EDTA buffer. The gel was run at 80V for 35 min, dried on whatman DE81 paper and radiaoactivity visualized by a phosphorimager (Typhoon 9210, Amersham). Analysis of the data was carried out by ImageQuant software (Amersham) and results were expressed as a percentage of the POT1-22AG complex obtained in the untreated control (defined as 100%) (see FIG. 14).

c1cc(-c2cnc(-c3cccc(-c4cnco4)n3)o2)nc(-c2cnc(-c3cccc(-c4cnco4)n3)o2)c1 [compound 3, 2,6-bis{2-[6-(oxazol-5-yl)pyridin-2-yl]oxazol-5-yl}pyridine]
ΔT1/2 F21T ([1]; K+ (100 mM KCl)): 1.3 °C
ΔT1/2 F21T ([1]; Na+ (100 mM NaCl)): 14.6 °C
F21T stabilization maintained ([1]; 1 μM of TG5T competitor): 61%
F21T stabilization maintained ([1]; 1 μM of c-myc competitor): 42%
F21T stabilization maintained ([1]; 3 μM of TG5T competitor): 37%
F21T stabilization maintained ([1]; 3 μM of c-myc competitor): 15%
F21T stabilization maintained ([1]; 10 μM of TG5T competitor): 17%
F21T stabilization maintained ([1]; 10 μM of c-myc competitor): 1%
F21T stabilization maintained ([1]; in presence of 1, 3 or 10 μM of ds26 duplex competitor): > 91%
fluorescence of compound upon addition of 22AG K ([2]; cacodylate buffer + 100 mM KCl): progressive quench of the fluorescence
fluorescence of compound upon addition of 22AG Na ([2]; cacodylate buffer + 100 mM NaCl): progressive quench of the fluorescence
CD signal of 22AG K (22AG quadruplex-DNA; 3 μM 22AG, 30 μM compound (10 equiv.), 100 mM KCl, 263 nm): reorganises completely the structure
CD signal of 22AG Na (22AG quadruplex-DNA; 3 μM 22AG, 30 μM compound (10 equiv.), 100 mM NaCl, 263 nm): modification of the amplitude of the CD signal
quadruplex-structure induction (folded/unfolded equilibrium of 22AG) (22AG quadruplex-DNA; 3 μM random coiled 22AG in 10 mM Tris.HCl pH 7.2, 0 to 7.5 equiv. compound): able to shift the equilibrium between the unfolded and the folded form of 22AG toward the folded one
IC50 (hPOT1): 300 nM
